Patent US8592174B2, “Peptidase substrates” (bioMérieux, S.A., priority 2009, dated 2013)

Legend:
[1] = tested on: Escherichia coli NCTC 10 418; test: Peptidase detection on Columbia medium (Example 2); assay type: cell-based; design: key to Growth: NG: No growth; 0.5: weak growth; 1: moderate growth; 2: good growth; details: 40 mg in 400 ml Columbia, 24 h 37° C.
[2] = tested on: Serratia marcescens NCTC 10 211; test: Peptidase detection on Columbia medium (Example 2); assay type: cell-based; design: key to Growth: NG: No growth; 0.5: weak growth; 1: moderate growth; 2: good growth; details: 40 mg in 400 ml Columbia, 24 h 37° C.
[3] = tested on: Pseudomonas aeruginosa NCTC 10 662; test: Peptidase detection on Columbia medium (Example 2); assay type: cell-based; design: key to Growth: NG: No growth; 0.5: weak growth; 1: moderate growth; 2: good growth; details: 40 mg in 400 ml Columbia, 24 h 37° C.
[4] = tested on: Yersinia enterocolitica NCTC 11 176; test: Peptidase detection on Columbia medium (Example 2); assay type: cell-based; design: key to Growth: NG: No growth; 0.5: weak growth; 1: moderate growth; 2: good growth; details: 40 mg in 400 ml Columbia, 24 h 37° C.
[5] = tested on: Salmonella typhimurium NCTC 74; test: Peptidase detection on Columbia medium (Example 2); assay type: cell-based; design: key to Growth: NG: No growth; 0.5: weak growth; 1: moderate growth; 2: good growth; details: 40 mg in 400 ml Columbia, 24 h 37° C.
[6] = tested on: Enterobacter cloacae NCTC 11 936; test: Peptidase detection on Columbia medium (Example 2); assay type: cell-based; design: key to Growth: NG: No growth; 0.5: weak growth; 1: moderate growth; 2: good growth; details: 40 mg in 400 ml Columbia, 24 h 37° C.
[7] = tested on: Providencia rettgeri NCTC 7 475; test: Peptidase detection on Columbia medium (Example 2); assay type: cell-based; design: key to Growth: NG: No growth; 0.5: weak growth; 1: moderate growth; 2: good growth; details: 40 mg in 400 ml Columbia, 24 h 37° C.
[8] = tested on: Bacillus subtilis NCTC 9 372; test: Peptidase detection on Columbia medium (Example 2); assay type: cell-based; design: key to Growth: NG: No growth; 0.5: weak growth; 1: moderate growth; 2: good growth; key to Fluo. / Color / Color post-acid.: —: no color; details: 40 mg in 400 ml Columbia, 24 h 37° C.
[9] = tested on: Enterococcus faecalis NCTC 775; test: Peptidase detection on Columbia medium (Example 2); assay type: cell-based; design: key to Growth: NG: No growth; 0.5: weak growth; 1: moderate growth; 2: good growth; key to Fluo. / Color / Color post-acid.: —: no color; details: 40 mg in 400 ml Columbia, 24 h 37° C.
[10] = tested on: Enterococcus faecium NCTC 7 171; test: Peptidase detection on Columbia medium (Example 2); assay type: cell-based; design: key to Growth: NG: No growth; 0.5: weak growth; 1: moderate growth; 2: good growth; key to Fluo. / Color / Color post-acid.: —: no color; details: 40 mg in 400 ml Columbia, 24 h 37° C.
[11] = tested on: Staphylococcus epidermidis NCTC 11 047; test: Peptidase detection on Columbia medium (Example 2); assay type: cell-based; design: key to Growth: NG: No growth; 0.5: weak growth; 1: moderate growth; 2: good growth; key to Fluo. / Color / Color post-acid.: —: no color; details: 40 mg in 400 ml Columbia, 24 h 37° C.
[12] = tested on: Staphylococcus aureus NCTC 6 571; test: Peptidase detection on Columbia medium (Example 2); assay type: cell-based; design: key to Growth: NG: No growth; 0.5: weak growth; 1: moderate growth; 2: good growth; key to Fluo. / Color / Color post-acid.: —: no color; details: 40 mg in 400 ml Columbia, 24 h 37° C.
[13] = tested on: Staphylococcus aureus NCTC 11 939; test: Peptidase detection on Columbia medium (Example 2); assay type: cell-based; design: key to Growth: NG: No growth; 0.5: weak growth; 1: moderate growth; 2: good growth; key to Fluo. / Color / Color post-acid.: —: no color; details: 40 mg in 400 ml Columbia, 24 h 37° C.
[14] = tested on: Streptococcus pyogenes NCTC 8 306; test: Peptidase detection on Columbia medium (Example 2); assay type: cell-based; design: key to Growth: NG: No growth; 0.5: weak growth; 1: moderate growth; 2: good growth; key to Fluo. / Color / Color post-acid.: —: no color; details: 40 mg in 400 ml Columbia, 24 h 37° C.
[15] = tested on: Listeria monocytogenes NCTC 11 994; test: Peptidase detection on Columbia medium (Example 2); assay type: cell-based; design: key to Growth: NG: No growth; 0.5: weak growth; 1: moderate growth; 2: good growth; key to Fluo. / Color / Color post-acid.: —: no color; details: 40 mg in 400 ml Columbia, 24 h 37° C.
[16] = tested on: Candida albicans ATCC 90 028; test: Peptidase detection on Columbia medium (Example 2); assay type: cell-based; design: key to Growth: NG: No growth; 0.5: weak growth; 1: moderate growth; 2: good growth; key to Fluo. / Color / Color post-acid.: —: no color; details: 40 mg in 400 ml Columbia, 24 h 37° C.
[17] = tested on: Candida glabrata NCPF 3 943; test: Peptidase detection on Columbia medium (Example 2); assay type: cell-based; design: key to Growth: NG: No growth; 0.5: weak growth; 1: moderate growth; 2: good growth; key to Fluo. / Color / Color post-acid.: —: no color; details: 40 mg in 400 ml Columbia, 24 h 37° C.
[18] = tested on: Gram-negative bacteria, Gram-positive bacteria, yeasts; details: conclusion of Example 2
Experimental: 40 mg of each of the substrates were dissolved in 4 ml of dimethyl sulfoxide (80 mg for Asn-ASQM^+) and added to 400 ml of previously autoclaved Columbia medium. The 6 media were distributed into Petri dishes 90 mm in diameter, in a proportion of 20 ml per dish.
Seventeen strains of microorganisms stemming from collections and belonging to various species of bacteria and yeasts are inoculated in spots of approximately 10 000 colony-forming units.
The media are incubated for 24 hours at 37° C., and then the colonies formed are examined visually, with or without the addition of acid and under a UV lamp at 365 nm.

- Growth [2]: 2
- Fluo. ([2]; UV lamp 365 nm): Green
- Color post-acid. ([2]; addition of acid): Orange
- Growth [3]: 2
- Fluo. ([3]; UV lamp 365 nm): Green
- Color post-acid. ([3]; addition of acid): Orange
- Growth [5]: 2
- Color post-acid. ([5]; addition of acid): Pale yellow
- Growth [6]: 2
- Color post-acid. ([6]; addition of acid): Pale yellow
- Color [8]: —
- Growth [8]: NG
- Fluo. ([8]; UV lamp 365 nm): —
- Color post-acid. ([8]; addition of acid): —
- Color [9]: —
- Growth [9]: NG
- Fluo. ([9]; UV lamp 365 nm): —
- Color post-acid. ([9]; addition of acid): —
- Color [10]: —
- Growth [10]: NG
- Fluo. ([10]; UV lamp 365 nm): —
- Color post-acid. ([10]; addition of acid): —
- Color [14]: —
- Growth [14]: NG
- Fluo. ([14]; UV lamp 365 nm): —
- Color post-acid. ([14]; addition of acid): —
- Color [15]: —
- Growth [15]: NG
- Fluo. ([15]; UV lamp 365 nm): —
- Color post-acid. ([15]; addition of acid): —
SMILES: NCCC(=O)Nc1ccc(C=Cc2ccc3ccccc3n2)cc1 [β-Ala-ASQ, β-alanyl-2-(4′-amidostyryl)quinoline]
- Growth [1]: 2
- Color post-acid. ([1]; addition of acid): Pale yellow
- Growth [4]: 2
- Color post-acid. ([4]; addition of acid): Pale yellow
- Growth [7]: 2
- Color post-acid. ([7]; addition of acid): Pale yellow
- Color [11]: —
- Growth [11]: NG
- Fluo. ([11]; UV lamp 365 nm): —
- Color post-acid. ([11]; addition of acid): —
- Color [12]: —
- Growth [12]: NG
- Fluo. ([12]; UV lamp 365 nm): —
- Color post-acid. ([12]; addition of acid): —
- Color [13]: —
- Growth [13]: NG
- Fluo. ([13]; UV lamp 365 nm): —
- Color post-acid. ([13]; addition of acid): —
- Color [16]: —
- Growth [16]: NG
- Fluo. ([16]; UV lamp 365 nm): —
- Color post-acid. ([16]; addition of acid): —
- Color [17]: —
- Growth [17]: NG
- Fluo. ([17]; UV lamp 365 nm): —
- Color post-acid. ([17]; addition of acid): —
- toxicity / growth of microorganisms [18]: toxic with respect to certain groups
